US20210292330A1, “PYRROLIDINE-FUSED HETEROCYCLES” (Erasca, Inc., priority 2020, published 2021)

Molecular target: T1, KRAS 4B G12C protein (Homo sapiens, UniProt P01116, G12C)
T1 construct: This protein contained 188 amino acids in total, including an N-terminal 6-Histidine tag; made in house; host or cells: E. coli BL21
Assay: In vitro covalent adduct formation (CAF) assay by LC-MS
Type: binding
Details: compound 10 μM, protein 5 μM, 22° C., percentage of protein bound by the compound
Summary of the method: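 Percent of protein covalently modified was quantified from intact-mass LC-MS ratios of free versus adducted protein, adducts within 1 Da of expected mass. Reactions: 10 μM compound, 5 μM His-TEV-KRAS 4B G12C (1-169) in TBS pH 7.4, 4% DMSO, 22° C., one hour, run in duplicate.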

## C=CC(=O)N1CCN(c2nc(OC[C@@H]3CCCN3C)nc3c2CN(c2cccc4cccc(C)c24)C3)C[C@@H]1CC#N [1-17, 2-((S)-1-acryloyl-4-(6-(8-methylnaphthalen-1-yl)-2-(((S)-1-methylpyrrolidin-2-yl)methoxy)-6,7-dihydro-5H-pyrrolo[3,4-d]pyrimidin-4-yl)piperazin-2-yl)acetonitrile]
  CAF (10 minutes/60 minutes) at 10 micromolar: 10 minutes: 90%
  CAF (10 minutes/60 minutes) at 10 micromolar: 60 minutes: 99%

## C=CC(=O)N1CCN(c2nc(OC[C@@H]3CCCN3C)nc3c2CN(C(=O)c2cccc(C(F)F)c2)C3)[C@@H](C)C1 [1-24]
  CAF (10 minutes/60 minutes) at 10 micromolar: 10 minutes: 0%/ 0%
  CAF (10 minutes/60 minutes) at 10 micromolar: 60 minutes: 0%/ 0%

## C=CC(=O)N1[C@H](C)CN(c2nc(OC[C@@H]3CCCN3C)nc3c2CN(Cc2c(Cl)ccc(O)c2C)C3)C[C@@H]1C [1-333]
  CAF (10 minutes/60 minutes) at 10 micromolar: 10 minutes: 17%
  CAF (10 minutes/60 minutes) at 10 micromolar: 60 minutes: 59%

## C=CC(=O)N1CCN(c2nc(OC[C@@H]3CCCN3C)nc3c2CN(Cc2nc(N)cc(C)c2C(F)(F)F)C3)C[C@@H]1CC#N [1-335]
  CAF (10 minutes/60 minutes) at 10 micromolar: 10 minutes: 92%
  CAF (10 minutes/60 minutes) at 10 micromolar: 60 minutes: 95%

## C=CC(=O)N1CCN(c2nc(CC[C@@H]3CCCN3C)nc3c2CN(C2CCc4ccccc42)C3)C[C@@H]1CC#N (stereo partly drawn) [1-146]
  CAF (10 minutes/60 minutes) at 10 micromolar: 10 minutes: 7%
  CAF (10 minutes/60 minutes) at 10 micromolar: 60 minutes: 33%

## C#C[C@H]1CN(C(=O)C=C)CCN1c1nc(OC[C@@H]2CCCN2C)nc2c1CN(C1CCc3ccccc31)C2 (stereo partly drawn) [1-162, 1-[(3S)-4-[6-(2,3-dihydro-1H-inden-1-yl)-2-{[(2S)-1-methylpyrrolidin-2-yl]methoxy}-5H,7H-pyrrolo[3,4-d]pyrimidin-4-yl]-3-ethynylpiperazin-1-yl]prop-2-en-1-one]
  CAF (10 minutes/60 minutes) at 10 micromolar: 10 minutes: 2%
  CAF (10 minutes/60 minutes) at 10 micromolar: 60 minutes: 12%

## C=CC(=O)N1CCN(c2nc(OC[C@@H]3CCCN3C(C)(C)C)nc3c2CN(C2CCc4ccccc42)C3)C[C@@H]1CC#N (stereo partly drawn) [1-202]
  CAF (10 minutes/60 minutes) at 10 micromolar: 10 minutes: 82%
  CAF (10 minutes/60 minutes) at 10 micromolar: 60 minutes: 89%

## C=CC(=O)N1CCN(c2nc(OC[C@@H]3CCCN3C)nc3c2CN(Cc2c(O)cccc2F)C3)[C@@H](C)C1 [1-47]
  CAF (10 minutes/60 minutes) at 10 micromolar: 10 minutes: 11%
  CAF (10 minutes/60 minutes) at 10 micromolar: 60 minutes: 43%

## C=CC(=O)N1CCN(c2nc(OC[C@@H]3CCCN3CCF)nc3c2CN(C2CCc4ccccc42)C3)C[C@@H]1CC#N (stereo partly drawn) [1-151]
  CAF (10 minutes/60 minutes) at 10 micromolar: 10 minutes: 81%
  CAF (10 minutes/60 minutes) at 10 micromolar: 60 minutes: 91%

## C=CC(=O)N1CCN(c2nc(OC[C@@H]3CCCN3C)nc3c2CN(Cc2c(C)cccc2OC)C3)C[C@@H]1CC#N [1-59]
  CAF (10 minutes/60 minutes) at 10 micromolar: 10 minutes: 46%
  CAF (10 minutes/60 minutes) at 10 micromolar: 60 minutes: 98%

## C=CC(=O)N1CCN(c2nc(OC[C@@H]3CCCN3C)nc3c2CN(Cc2cc(O)cc4ccccc24)C3)C[C@@H]1CC#N [1-180]
  CAF (10 minutes/60 minutes) at 10 micromolar: 10 minutes: 94%
  CAF (10 minutes/60 minutes) at 10 micromolar: 60 minutes: 96%

## C#CC[C@H]1CN(c2nc(OC[C@@H]3CCCN3C)nc3c2CN(C2CCc4ccccc42)C3)CCN1C(=O)C=C (stereo partly drawn) [1-144, 1-((2S)-4-(6-(2,3-dihydro-1H-inden-1-yl)-2-(((S)-1-methylpyrrolidin-2-yl)methoxy)-6,7-dihydro-5H-pyrrolo[3,4-d]pyrimidin-4-yl)-2-(prop-2-yn-1-yl)piperazin-1-yl)prop-2-en-1-one]
  CAF (10 minutes/60 minutes) at 10 micromolar: 10 minutes: 15%
  CAF (10 minutes/60 minutes) at 10 micromolar: 60 minutes: 35%

## C=CC(=O)N1CCN(c2nc(OC[C@@H]3CCCN3C)nc3c2CN(Cc2ccc(F)cc2C(C)C)C3)C[C@@H]1CC#N [1-196]
  CAF (10 minutes/60 minutes) at 10 micromolar: 10 minutes: 41%
  CAF (10 minutes/60 minutes) at 10 micromolar: 60 minutes: 52%

## C=CC(=O)N1CCN(c2nc(OC[C@@H]3CCCN3C)nc3c2CN(C2COc4ccccc42)C3)C[C@@H]1CC#N (stereo partly drawn) [1-106]
  CAF (10 minutes/60 minutes) at 10 micromolar: 10 minutes: 59%
  CAF (10 minutes/60 minutes) at 10 micromolar: 60 minutes: 75%

## C=CC(=O)N1CCN(c2nc(OC[C@@H]3CCCN3C)nc3c2CN(Cc2cc(Cl)ccc2C)C3)C[C@@H]1CC#N [1-67]
  CAF (10 minutes/60 minutes) at 10 micromolar: 10 minutes: 70%
  CAF (10 minutes/60 minutes) at 10 micromolar: 60 minutes: 92%

## C=CC(=O)N1CCN(c2nc(OC[C@@H]3CCCN3C)nc3c2CN(C(C)c2c(O)cccc2F)C3)C[C@@H]1CC#N (stereo partly drawn) [1-111]
  CAF (10 minutes/60 minutes) at 10 micromolar: 10 minutes: 87%
  CAF (10 minutes/60 minutes) at 10 micromolar: 60 minutes: 96%

## C=CC(=O)N1CCN(c2nc(OC[C@@H]3CCCN3C)nc3c2CN(Cc2c(Cl)cccc2OC(F)F)C3)[C@H](C)C1 [1-91]
  CAF (10 minutes/60 minutes) at 10 micromolar: 10 minutes: 0%/ 0%
  CAF (10 minutes/60 minutes) at 10 micromolar: 60 minutes: 0%/ 0%

## C=CC(=O)N1CCN(c2nc(OC[C@@H]3CCCN3C)nc3c2CN(C2CCc4ccc(O)c(Cl)c42)C3)C[C@@H]1CC#N (stereo partly drawn) [1-342]
  CAF (10 minutes/60 minutes) at 10 micromolar: 10 minutes: 80%
  CAF (10 minutes/60 minutes) at 10 micromolar: 60 minutes: 87%
